Test results reported in EP1756125B1, “1,1,3,3,3-[…]-1-OXO/THIO-1LAMBDA5,3LAMBDA5-DIPHOSPHAZ-2-ENES, METHOD FOR PRODUCING THEM AND THEIR USE AS AGENTS FOR […] […] […] UREA” (SKW STICK[…] GmbH, priority 2004, dated 2005).

The compounds below were run on Urease (assay: Test for urease-inhibiting effect in soil (NH3-N release from urea, closed vessel with ammonia trap)). Details: Konz. 0,1 % HS-N-bez.; soil at 40 % of maximum water capacity, 50 mg urea; t50 = day after start at which inhibition of urea hydrolysis is still 50 %.
Type: biochemical
Protocol: 30 g auf 40 % der maximalen Wasserkapazität eingestellter Boden werden mit 1 ml Harnstofflösung entsprechend 50 mg Harnstoff versetzt. Gleichzeitig erfolgt die Applikation des Wirkstoffes, vorzugsweise in der Harnstofflösung gelöst. Die Konzentrationsangaben für die einzelnen geprüften Wirkstoffe in der nachfolgenden Tabelle beziehen sich auf die im Test verwendete Menge an Carbamidstickstoff. Der Boden, auf dessen Oberfläche die Harnstofflösung (mit und ohne Wirkstoff) aufgebracht wird, befindet sich in einem luftdicht verschlossenen Gefäß, in das gleichzeitig eine Vorlage eingebracht wird, die den aus dem Harnstoff freigesetzten Ammoniak als Ammonium auffängt. Durch tägliches Überspülen der Vorlage und Analyse der enthaltenen NH4-N-Mengen wird die NH3-N-Freisetzung aus dem Harnstoff bestimmt.
Aus der Summation der Ammonium-Mengen in der Vorlage wird die prozentuale Hemmung der Harnstoff-Hydrolyse in Abhängigkeit von der Zeit berechnet bzw. aus diesen Werten der t50-Wert rechnerisch ermittelt.
Als t50-Wert wird der Zeitpunkt in Tagen nach Versuchsbeginn verstanden, zu dem die Hemmung der Harnstoff-Hydrolyse noch 50 % beträgt.

Structure (SMILES) | t50-Wert
CCCNP(N)(N)=NP(N)(N)=S [Verbindung 6, 3-Propylamino-1,1,3,3-tetraamino-1-thio-1λ^5,3λ^5-diphosphaz-2-en] | 14,2 d
CCCCNP(N)(=NP(N)(N)=S)NCCCC [Verbindung 1, 3,3-Bis(butylamino)-1,1,3,-triamino-1-thio-1λ^5,3λ^5-diphosphaz-2-en] | 9,4 d
CCCNP(N)(=NP(N)(N)=O)NCCC [Verbindung 4, 3,3-Bis(propylamino)-1,1,3,-triamino-1-oxo-1λ^5,3λ^5-diphosphaz-2-en] | 9,6 d
CCCCNP(N)(N)=NP(N)(N)=S [Verbindung 5, 3-Butylamino-1,1,3,3-tetraamino-1-thio-1λ^5,3λ^5-diphosphaz-2-en] | 14,5 d
CCCCNP(N)(=NP(N)(N)=O)NCCCC [Verbindung 2, 3,3-Bis(butylamino)-1,1,3,-triamino-1-oxo-1λ^5,3λ^5-diphosphaz-2-en] | 8,8 d
CCCNP(N)(=NP(N)(N)=S)NCCC [Verbindung 3, 3,3-Bis(propylamino)-1,1,3,-triamino-1-thio-1λ^5,3λ^5-diphosphaz-2-en] | 10,4 d

Same assay, conditions: Konz. 0,5 % HS-N-bez.; soil at 40 % of maximum water capacity, 50 mg urea; t50 = day after start at which inhibition of urea hydrolysis is still 50 %

Structure (SMILES) | t50-Wert
CCN(CC)P(N)(N)=NP(N)(N)=S [Verbindung 7, 3-Diethylamino-1,1,3,3-tetraamino-1-thio-1λ^5,3λ^5-diphosphaz-2-en] | 7,9 d
